Measurements taken from paper PMC6934184, “Selective DNA-PKcs inhibition extends the therapeutic index of localized radiotherapy and chemotherapy” (The Journal of Clinical Investigation, 2019).

Biological target: T1, PRKCN (PKD3) (Homo sapiens, UniProt O94806)
T1 construct: purchased Thermo Fisher Scientific (Life Technologies) SelectScreen
Assay: SelectScreen Z'LYTE
Type: biochemical
Method in brief: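 SelectScreen broad panel; activity (Z'LYTE, Adapta) plus binding formats. ATP: Km app for CSF1R Z'LYTE; 10 for CAMK1 Adapta. Readout = % per kinase.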

T1 sequence (O94806 whole entry): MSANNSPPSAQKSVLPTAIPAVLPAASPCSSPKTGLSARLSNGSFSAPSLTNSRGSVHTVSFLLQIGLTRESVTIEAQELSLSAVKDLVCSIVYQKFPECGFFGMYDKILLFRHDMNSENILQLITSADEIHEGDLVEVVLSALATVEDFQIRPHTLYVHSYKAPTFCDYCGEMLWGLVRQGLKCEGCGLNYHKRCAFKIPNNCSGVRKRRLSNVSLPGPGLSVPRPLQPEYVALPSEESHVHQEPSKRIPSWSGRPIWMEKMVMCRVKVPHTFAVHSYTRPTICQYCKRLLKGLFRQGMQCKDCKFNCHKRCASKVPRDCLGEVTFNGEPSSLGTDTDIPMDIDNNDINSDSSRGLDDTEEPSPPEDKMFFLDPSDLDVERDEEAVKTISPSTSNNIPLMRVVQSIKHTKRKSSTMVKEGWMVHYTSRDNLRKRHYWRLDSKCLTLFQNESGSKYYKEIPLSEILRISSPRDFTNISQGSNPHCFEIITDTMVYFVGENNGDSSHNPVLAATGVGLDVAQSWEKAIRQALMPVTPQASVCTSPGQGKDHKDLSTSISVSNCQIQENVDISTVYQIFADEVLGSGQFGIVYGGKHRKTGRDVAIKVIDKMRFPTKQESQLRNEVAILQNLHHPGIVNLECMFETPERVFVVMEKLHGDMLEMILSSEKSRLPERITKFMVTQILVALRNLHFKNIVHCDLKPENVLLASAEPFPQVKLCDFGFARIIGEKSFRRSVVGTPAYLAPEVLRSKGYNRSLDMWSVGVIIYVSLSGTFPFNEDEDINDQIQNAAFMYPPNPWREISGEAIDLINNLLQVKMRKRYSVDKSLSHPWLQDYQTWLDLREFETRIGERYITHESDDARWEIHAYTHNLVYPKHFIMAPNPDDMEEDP

CN(C(=O)CN1CCOCC1)c1ccc2sc3c(-c4cccc5c(=O)cc(N6CC7CCC(C6)O7)oc45)cccc3c2c1 [NU5455]
inhibition at 1 µM: 10.7%
